Usually MIC stands for the smallest concentration in the dilution series that meets the test's criterion for growth inhibition.

In patent publication US4066753A, “Neomycin and paromomycin derivatives” (Canadian Patents and Development Limited, priority 1976, dated 1978) one finds MIC data, which are given here for four compounds.

Common to all, as to type: cell-based
One assay deals with S. pyogenes S B352. The experiment in a line: IN VITRO antibacterial activity, S. pyogenes S B352. Conditions: Streptococcus pyogenes, SB352, 24 h. On the procedure:
(§1) In the Tables above MIC stands for minimum inhibitory concentration and
(§2) the results were obtained by providing halving dilutions of the test
(§3) compound in nutrient broth (concentrations usually range from 1/10,000 to
(§4) 1/320,000). These solutions are inoculated with the test organism,
(§5) incubated for 24 hours at 37° C and then examined for the presence
(§6) of growth. A test compound found to have a minimum inhibitory
(§7) concentration (MIC) of 1/160,000 is generally considered as a lead.

The next assay has as its system S. pyogenes R 353. The assay is described as follows: IN VITRO antibacterial activity, S. pyogenes R 353. Conditions: Streptococcus pyogenes, R353, 24 h. On the procedure:
as §1, §2, §3, §4, §5, §6, §7

In a further assay the test system is S. fecalis 353. The assay is described as follows: IN VITRO antibacterial activity, S. fecalis 353. Conditions: 24 h. The procedure: as §1, §2, §3, §4, §5, §6, §7
A further assay concerns E. Coli 198 (ATCC 1/229). The experiment in a line: IN VITRO antibacterial activity, E. Coli 198 (ATCC 1/229). Conditions: Escherichia coli, ATCC1, 24 h. On the procedure: as §1, §2, §3, §4, §5, §6, §7
In another assay the test system is A. aerogenes 357. The assay is described as follows: IN VITRO antibacterial activity, A. aerogenes 357. Conditions: Klebsiella aerogenes, 357, 24 h. The procedure:
as §1, §2, §3, §4, §5, §6, §7

The subject of a further assay is S. pullorum 358. The experiment in a line: IN VITRO antibacterial activity, S. pullorum 358. Conditions: Salmonella enterica, PULLORUM, 24 h. The procedure:
as §1, §2, §3, §4, §5, §6, §7

A further assay concerns P. aeruginosa 359. The experiment in a line: IN VITRO antibacterial activity, P. aeruginosa 359. Conditions: Pseudomonas aeruginosa, 359, 24 h. On the procedure: as §1, §2, §3, §4, §5, §6, §7
The test system of the next assay is Pr. mirabilis 360. The experiment in a line: IN VITRO antibacterial activity, Pr. mirabilis 360. Conditions: Proteus mirabilis, 360, 24 h. On the procedure: as §1, §2, §3, §4, §5, §6, §7
In another assay the test system is Pr. vulgaris 316. The experiment in a line: IN VITRO antibacterial activity, Pr. vulgaris 316. Conditions: Proteus vulgaris, 316, 24 h. On the procedure: as §1, §2, §3, §4, §5, §6, §7
Assay [1] relates to Kl. pneumoniae 855 (ATCC 10081). The experiment in a line: IN VITRO antibacterial activity, Kl. pneumoniae 855 (ATCC 10081). Conditions: Klebsiella pneumoniae, ATCC10081, nutrient broth, 24 hours at 37° C. The procedure: as §1, §2, §3, §4, §5, §6, §7
Assay [2] has as its system S. marcesceus 854 (ATCC → 103). The experiment in a line: IN VITRO antibacterial activity, S. marcesceus 854 (ATCC → 103). Conditions: 24 h. On the procedure: as §1, §2, §3, §4, §5, §6, §7
Another assay concerns P. aeruginosa 87442. The assay is described as follows: IN VITRO antibacterial activity against resistant organisms, P. aeruginosa 87442. Conditions: resistant organism P. aeruginosa 87442, nutrient broth, 24 hours at 37° C. The procedure:
as §1, §2, §3, §4, §5, §6, §7

In a further assay the test system is P. aeruginosa 377. The experiment in a line: IN VITRO antibacterial activity against resistant organisms, P. aeruginosa 377. Conditions: resistant organism P. aeruginosa 377, nutrient broth, 24 hours at 37° C. The procedure:
as §1, §2, §3, §4, §5, §6, §7

The next assay relates to E. coli B989. The experiment in a line: IN VITRO antibacterial activity against resistant organisms, E. coli B989. Conditions: resistant organism E. coli B989, nutrient broth, 24 hours at 37° C. On the procedure:
as §1, §2, §3, §4, §5, §6, §7

The test system of another assay is E. coli B1002. The experiment in a line: IN VITRO antibacterial activity against resistant organisms, E. coli B1002. Conditions: resistant organism E. coli B1002, nutrient broth, 24 hours at 37° C. The procedure:
as §1, §2, §3, §4, §5, §6, §7

The next assay relates to S. pyogenes S. The assay is described as follows: IN VITRO antibacterial activity, S. pyogenes S. Conditions: Streptococcus pyogenes, 24 h. On the procedure: as §1, §2, §3, §4, §5, §6, §7
Another assay has as its system S. pyogenes R. The experiment in a line: IN VITRO antibacterial activity, S. pyogenes R. Conditions: Streptococcus pyogenes, 24 h. The procedure: as §1, §2, §3, §4, §5, §6, §7
A further assay concerns S. fecalis. The assay is described as follows: IN VITRO antibacterial activity, S. fecalis. Conditions: 24 h. The procedure: as §1, §2, §3, §4, §5, §6, §7
In another assay the test system is E. coli 198. The assay is described as follows: IN VITRO antibacterial activity, E. coli 198. Conditions: Escherichia coli, 198, 24 h. On the procedure:
as §1, §2, §3, §4, §5, §6, §7

The test system of another assay is A. aerogenes. The experiment in a line: IN VITRO antibacterial activity, A. aerogenes. Conditions: Klebsiella aerogenes, 24 h. On the procedure: as §1, §2, §3, §4, §5, §6, §7
In the next assay the test system is S. pullorm. The experiment in a line: IN VITRO antibacterial activity, S. pullorm. Conditions: 24 h. The procedure:
as §1, §2, §3, §4, §5, §6, §7

A further assay deals with P. aeruginosa. The assay is described as follows: IN VITRO antibacterial activity, P. aeruginosa. Conditions: Pseudomonas aeruginosa, 24 h. The procedure: as §1, §2, §3, §4, §5, §6, §7
Another assay concerns P. mirabilis. The experiment in a line: IN VITRO antibacterial activity, P. mirabilis. Conditions: Proteus mirabilis, 24 h. On the procedure:
as §1, §2, §3, §4, §5, §6, §7

In a further assay the test system is K. pneumoniae. The experiment in a line: IN VITRO antibacterial activity, K. pneumoniae. Conditions: Klebsiella pneumoniae, 24 h. On the procedure: as §1, §2, §3, §4, §5, §6, §7
For another assay, the system named is S. marcesceus. The assay is described as follows: IN VITRO antibacterial activity, S. marcesceus. Conditions: 24 h. On the procedure:
as §1, §2, §3, §4, §5, §6, §7

The next assay relates to E. coli B996. The experiment in a line: IN VITRO antibacterial activity, E. coli B996 (resistant to Kanamycin and paromomycin). Conditions: Escherichia coli, nutrient broth, 24 hours at 37° C. The procedure: as §1, §2, §3, §4, §5, §6, §7
Where [3] appears, read: Pseudomonas aeruginosa, read-out: MIC.
The mark [4] stands for this setting: Escherichia coli, read-out: MIC.

≈ marks a conversion by molar mass, not a printed value. Read-outs that look alike come from different tables or passages of the source.

Take `NC[C@@H]1O[C@H](O[C@H]2[C@@H](O)[C@H](O[C@@H]3[C@@H](O)[C@H](N)C[C@H](N)[C@H]3O[C@H]3O[C@H](CN)[C@@H](O)[C@H](O)[C@H]3N)O[C@@H]2CO)[C@H](N)[C@@H](O)[C@@H]1O` [Neomycin B, neomycin B]: the MIC in the assay on S. pyogenes S B352 was less than 0.2 µg/mL; with S. pyogenes R 353 it was less than 0.2 µg/mL; in the assay on S. fecalis 353, 0.8 µg/mL (≈ 1.3 µM); in the assay with E. Coli 198 (ATCC 1/229) it was 0.8 µg/mL (≈ 1.3 µM); in the assay with A. aerogenes 357, less than 0.2 µg/mL; with S. pullorum 358 it was less than 0.2 µg/mL. The MIC with P. aeruginosa 359 was 0.8 µg/mL (≈ 1.3 µM); in the assay with Pr. mirabilis 360, 0.4 µg/mL (≈ 0.651 µM); with Pr. vulgaris 316 it was less than 0.2 µg/mL; in [1], less than 0.2 µg/mL; in assay [2] it was less than 0.2 µg/mL.

For the compound `NC[C@@H]1O[C@H](O[C@H]2[C@@H](O)[C@H](O[C@@H]3[C@@H](O)[C@H](N)C[C@H](N)[C@H]3O[C@H]3O[C@H](CN)[C@@H](O)[C@H](O)[C@H]3N)O[C@@H]2CO)[C@H](N)[C@@H](O)[C@@H]1O` [Neomycin], the MIC in the assay with P. aeruginosa 87442 (setting [3]) is less than 0.2 µg/mL; in the assay on P. aeruginosa 377 (setting [3]), 0.4 µg/mL (≈ 0.651 µM); with E. coli B989 (setting [4]) it was 1.6 µg/mL (≈ 2.6 µM); in the assay on E. coli B1002 (setting [4]), 50 µg/mL (≈ 81.3 µM).

For `NC[C@@H]1O[C@H](O[C@H]2[C@@H](O)[C@H](O[C@@H]3[C@@H](O)[C@H](N)C[C@H](N)[C@H]3O[C@H]3O[C@H](CO)[C@@H](O)[C@H](O)[C@H]3N)O[C@@H]2CO)[C@H](N)[C@@H](O)[C@@H]1O` [Paromomycin], the MIC is less than 0.2 µg/mL in the assay on S. pyogenes S; less than 0.2 µg/mL in the assay with S. pyogenes R; 1.6 µg/mL (≈ 2.6 µM) against S. fecalis; 0.4 µg/mL (≈ 0.65 µM) against E. coli 198; more than 0.2 µg/mL against A. aerogenes; more than 0.2 µg/mL in the assay with S. pullorm. Also, the MIC in the assay with P. aeruginosa was 0.8 µg/mL (≈ 1.3 µM); in the assay on P. mirabilis, more than 0.2 µg/mL; in the assay on K. pneumoniae it was more than 0.2 µg/mL; against S. marcesceus, 0.4 µg/mL (≈ 0.65 µM); in the assay with E. coli B996, more than 100 µg/mL.

Turning to Gentamycin, the MIC in the assay with P. aeruginosa 87442, in the assay on P. aeruginosa 377, in the assay with E. coli B989 and with E. coli B1002 was less than 0.2 µg/mL each time.
